# Data: patent publication US20220323444A1, “Methods of Treating Advanced Prostate Cancer” (The Medical College of Wisconsin, Inc., priority 2019, published 2022)
# Columns and labels:
# [1] = system: nuclear active Stat5 in PCs; experiment: Immunohistochemistry of active Stat5 in PCs of patients treated with ENZ; format: in vivo, human; settings: biopsies of ENZ-treated PCs
# Description: We recently reported that ENZ induces a hyperactivated feed-forward Jak2-Stat5 signaling loop in PC to promote ENZ-resistant PC growth(50).
# [2] = system: EMT markers (N-cadherin, Vimentin, Twist1, E-cadherin) in PC cell lines; experiment: EMT marker expression in PC cell lines treated with ENZ; format: cell-based; settings: three PC cell lines, 12 days
# Procedure: Lenti-viral expression of ShStat5 3 days prior to ENZ treatment (at indicated concentrations) blocked ENZ-induction of the EMT markers.
# (§1) To evaluate if ENZ induces EMT and migration of PC cells in our hands, three different PC cell lines were treated with ENZ for 12 days and analyzed for the expression of EMT markers (N-cadherin, Vimentin and Twist1) by immunoprecipitation (IP) and western blotting (FIG. 13). […] The ENZ-induced PC cell migration was inhibited by genetic ablation of Stat5 by lentiviral expression of shStat5 vs. shCtrl (FIG. 14). Human CWR22Pc cells, when inoculated to the prostates of immunocompromised mice, form distant metastases in the liver in 8 weeks after orthotopic growth.
# [3] = system: CWR22Rv1, CWR22Pc and LAPC4 cells; experiment: PC cell migration, Boyden chamber assay; format: cell-based; settings: Fibronectin chemoattractant
# Procedure: Stat5 was genetically knocked down by lentiviral expression of shStat5 with shCtrl as control for 3 days followed by treatment with ENZ (40 μM; CWR22Pc, CWR22Rv1; 20 μM LAPC-4) vs. DMSO for 10 days. Equivalent numbers of cells were plated to Boyden chamber inserts with Fibronectin as the chemoattractant in the bottom well, and the migrated cells were imaged and counted.
# as §1
# CRPC = settings: cited from earlier work
# [4] = system: Stat5 and Jak2 phosphorylation in PC cells; experiment: ENZ-induced Jak2-Stat5 phosphorylation in PC cells (IP and WB); format: cell-based
# Procedure: CWR22Pc and LAPC4 PC cells were treated with ENZ or vehicle for the indicated periods of time. Levels of active Stat5 were determined by immunoprecipitation (IP) of Stat5 followed by immunoblotting (WB) for pStat5a/b and total Stat5. Whole cell lysates (WCL) were immunoblotted for pStat3, Stat3 and Actin. […] CWR22Pc and LAPC4 cells were transduced with lentiviral AR shRNA (shAR) or lenti-shCtrl for 3 days followed by treatment with ENZ or vehicle for 7 days at the indicated concentrations.
# PC cells were cultured with ENZ or Jak2 inhibitor AZD1480 (800 nM) alone or in combination for 12 days. Expression levels of active Stat5 were determined by IP of Stat5 followed by WB for pStat5a/b and total Stat5. WCLs were immunoblotted for pStat3, Stat3 and Actin. […] Jak2 was suppressed by lentiviral Jak2 shRNA vs. shCtrl in PC cells for 3 days followed by ENZ or vehicle for 7 days. Active Stat5, Stat5 and Jak2 levels were evaluated by IP and WB, as depicted. […] PC cells were treated with ENZ or vehicle for 6 h at the indicated concentrations. Control cells were stimulated with prolactin (Prl) (10 nM) for 20 min as control for cytokine-induced Jak2 phosphorylation. […] Alternatively, PC cells were treated with ENZ or vehicle for 12 days or stimulated with Prl for 20 min at the indicated concentrations. Stat5 and Jak2 were IP:ed and WB:ed for pStat5, pJak2, tot Stat5, and total Jak2.
# To investigate whether AR is required for ENZ induction of Stat5 signaling, we inhibited AR expression in CWR22Pc and LAPC4 cells by genetic knockdown using lentiviral expression of AR shRNA (FIG. 9C).
# To further assess the involvement of Jak2 in ENZ-induced Stat5 activation, Jak2 was genetically knocked down by lentiviral expression of Jak2 shRNA in CWR22Pc and LAPC4 cells for 3 days followed by ENZ treatment for 7 days.
smiles,measurement,setting,value
"CNC(=O)c1ccc(N2C(=S)N(c3ccc(C#N)c(C(F)(F)F)c3)C(=O)C2(C)C)cc1F [ENZ, 4-(3-(4-cyano-3-(trifluoromethyl)phenyl)-5,5-dimethyl-4-oxo-2-thioxoimidazolidin-1-yl)-2-fluoro-N-methylbenzamide]",levels of nuclear active Stat5 versus hormone-naïve PCs,[1],significantly (p<0.0001) elevated
same,expression of EMT markers,[2],"induced the expression of N-cadherin, Vimentin and Twist1, while suppressing E-cadherin expression"
same,migration of PC cell lines,[3],induces a robust migration
same,improvement in survival of PC patients,CRPC,4-6 months
same,Stat5 phosphorylation in PC cell lines,[4]; FIG. 9,induced a robust Stat5 phosphorylation
same,phosphorylation of Jak2 in PC cells,[4]; FIGS. 10C-10D,induced robust phosphorylation of Jak2
